Publication PMC7377239, “Cardiovascular Effects of Polychlorinated Biphenyls and Their Major Metabolites” (Environmental Health Perspectives, 2020)
Read-outs that look alike come from different tables or passages of the source.

How the values were obtained:
[1] = system: HUVECs; test: High-content imaging cytotoxicity in HUVECs, 24 h; type: cell-based, human; conditions: Homo sapiens, HUVEC, 24 h, HUVECs; for viability at 0.01 µM / activity at 0.01 µM / viability at 0.1 µM / activity at 0.1 µM / viability at 1 µM / activity at 1 µM / viability at 10 µM / activity at 10 µM / viability at 100 µM / activity at 100 µM: 0.00 µM = 100.00; for viability at 0.1 µM / activity at 0.1 µM: 0.10 µM; for minimal effective concentration: top concentration 100.00 µM
Method: Similar to the cultivation of iCell®-endothelial cells, HUVEC maintenance and experimentation are detailed elsewhere ([Iwata et al. 2017]). Briefly, HUVECs were thawed, seeded, and grown in T75 tissue culture flasks in Medium 199 with EGM™-2 BulletKits™. HUVECs were incubated at regular cell culture conditions, 37°C and 5% CO2 , and passaged every 2–3 d using TrypLE™ Express. To ensure adequate endothelial function, experiments were performed with cells between passages 1 and 5.
(§1) Cytotoxicity was assessed in parallel experiments. For iCell®-endothelial cells, 384-well plates were coated with a 30μg/mL fibronectin solution ( 10μL/well ) and incubated for 2 h at RT. iCell®-endothelial cells were dissociated with TrypLE™ Express and prepared into a solution to achieve 750 cells per well and 50μL of total volume. The fibronectin solution was removed from the 384-well plate, and cells were plated. For HUVECs, similar dissociation and the same cell density were used for plating with the exclusion of the fibronectin solution. Cells were incubated at 37°C and 5% CO2 until a monolayer was formed, typically 3–5 d. 2×PCB plates were created with the requisite maintenance medium. Before treatment, the medium in the wells was exchanged to 25μL/well of fresh maintenance medium. 2×PCB chemical solutions ( […] ) were added. After 24 h incubation at 37°C and 5% CO2 , cells were stained with Hoechst 33342, MitoTracker™ Orange, and calcein AM for 20 min before replacing the staining media with FluoroBright DMEM. Cell culture plates were imaged using the ImageXpress® Micro Confocal high-content imaging system (Molecular Devices). Images were acquired at 10× magnification with DAPI, TRITC, or FITC filter (Hoechst 33342, MitoTracker™, or calcein AM, respectively). The multiwavelength cell scoring applications module in MetaXpress™ (Molecular Devices) was used to analyze the images.
(§2) Phenotypic responses were quantitatively assessed using concentration–response modeling as detailed elsewhere ([Sirenko et al. 2017]). Briefly, phenotypic readouts were normalized to vehicle controls and fit to a four-parameter logistic model in R studio software (version 3.1.1; R Development Core Team). Following EPA guidance on dose–response modeling, a cutoff of one standard deviation across means of vehicle control (i.e., 0.5% vol/vol DMSO in cell culture media) wells was applied to determine the point-of-departure (POD) values ([U.S. EPA 2012]). In the absence of a concentration–response, the highest tested concentration (i.e., 100μM ) was assigned as “no observable adverse effect level.” The concentration–response assessment R script, as well as templates for vehicle and concentration–response data, are available as a supplement to Sirenko et al. ([2017]). The ability of physicochemical properties to predict differences in PODs were evaluated by multiregression and mixed-effects modeling using R.

[2] = system: iCell endothelial cells (human iPSC-derived ECs); test: High-content imaging cytotoxicity in iCell endothelial cells, 24 h; type: cell-based; conditions: Homo sapiens, Endothelial cell, iPSC-EC, 24 hr; for viability at 0.1 µM / activity at 0.1 µM: 0.10 µM; for minimal effective concentration: top concentration 100.00 µM
Method: The culture conditions of iCell®-endothelial cells were as reported elsewhere ([Iwata et al. 2017]). Briefly, T75 flasks were coated with a fibronectin solution ( 3 μg/cm^2 ) followed by incubation for 1–2 h. Cells were thawed for 3 min in a 37°C water bath. Thawed cells were added to maintenance medium made of VascuLife VEGF Medium Complete Kit, excluding the supplied FBS, and iCell® Endothelial Cells Medium Supplement. The final formulation of the maintenance medium is detailed in ([Iwata et al. 2017]). The aliquoted fibronectin solution was aspirated from the T75 flasks, and cells were seeded at 1.0×10^4 cells/cm^2 . Cells were maintained at 37°C and 5% CO2 with media changes occurring every 2 d and passaged every 3–4 d using TrypLE™ Express. All experiments were conducted on cells between passages 1 and 5.
as §1, §2

[3] = 24 hr, read-out: huvec.cyto.24hr
[4] = 24 hr, read-out: huvec.mito.24hr
[5] = 24 hr, read-out: huvec.mitoint.24hr
[6] = 24 hr, read-out: huvec.nma.24hr
[7] = 24 hrs, read-out: huvec.tc.24hrs
[8] = 0.00 µM control = 100.00, read-out: endo.cyto.24hr
[9] = 0.00 µM control = 100.00, read-out: endo.mito.24hr
[10] = 0.00 µM control = 100.00, read-out: endo.mitoint.24hr
[11] = 0.00 µM control = 100.00, read-out: endo.nma.24hr
[12] = 0.00 µM control = 100.00, read-out: endo.tc.24hrs

## Oc1ccc(O)c(-c2ccc(Cl)cc2)c1 [2',5'-DiOH PCB3]
[1]; [3]
  viability at 0.01 µM: 84.3%
  viability at 0.1 µM: 103%
  viability at 1 µM: 75%
  viability at 10 µM: 57.5%
  viability at 100 µM: 2.82%
[1]; [4]
  activity at 0.01 µM: 83.2%
  activity at 0.1 µM: 103%
  activity at 1 µM: 73.6%
  activity at 10 µM: 27.6%
  activity at 100 µM: 0%
[1]; [5]
  activity at 0.01 µM: 99.1%
  activity at 0.1 µM: 112%
  activity at 1 µM: 104%
  activity at 10 µM: 10.3%
  activity at 100 µM: 0%
[1]; [6]
  activity at 0.01 µM: 101%
  activity at 0.1 µM: 97.2%
  activity at 1 µM: 101%
  activity at 10 µM: 96.2%
  activity at 100 µM: 83.3%
[1]; 24 hr, read-out: huvec.cyto.24hr POD
  minimal effective concentration: 0.12 µM
[1]; 24 hr, read-out: huvec.mito.24hr POD
  minimal effective concentration: 0.13 µM
[1]; 24 hr, read-out: huvec.mitoint.24hr POD
  minimal effective concentration: 3.51 µM
[1]; 24 hr, read-out: huvec.nma.24hr POD
  minimal effective concentration: 8.87 µM
[1]; [7]
  viability at 0.01 µM: 84.5%
  viability at 0.1 µM: 103%
  viability at 1 µM: 75%
  viability at 10 µM: 57.7%
  viability at 100 µM: 89.6%
[1]; 24 hrs, read-out: huvec.tc.24hrs POD
  minimal effective concentration: 0.12 µM
[2]; [8]
  viability at 0.01 µM: 90.8%
  viability at 0.1 µM: 93.4%
  viability at 1 µM: 99.2%
  viability at 10 µM: 86.5%
  viability at 100 µM: 12.2%
[2]; [9]
  activity at 0.01 µM: 91.1%
  activity at 0.1 µM: 94%
  activity at 1 µM: 99.2%
  activity at 10 µM: 86.6%
  activity at 100 µM: 2.34%
[2]; [10]
  activity at 0.01 µM: 127%
  activity at 0.1 µM: 109%
  activity at 1 µM: 104%
  activity at 10 µM: 108%
  activity at 100 µM: 28.7%
[2]; [11]
  activity at 0.01 µM: 103%
  activity at 0.1 µM: 101%
  activity at 1 µM: 98.6%
  activity at 10 µM: 101%
  activity at 100 µM: 184%
[2]; [12]
  viability at 0.01 µM: 90.8%
  viability at 0.1 µM: 93.5%
  viability at 1 µM: 99.2%
  viability at 10 µM: 86.5%
  viability at 100 µM: 17%
[2]; read-out: endo.cyto.24hr POD
  minimal effective concentration: 6.71 µM
[2]; read-out: endo.mito.24hr POD
  minimal effective concentration: 6.71 µM
[2]; read-out: endo.mitoint.24hr POD
  minimal effective concentration: 44.6 µM
[2]; read-out: endo.nma.24hr POD
  minimal effective concentration: 13.7 µM
[2]; read-out: endo.tc.24hrs POD
  minimal effective concentration: 5.78 µM
